Source: patent publication US11221334B2, “Method for determining breast cancer treatment” (THE REGENTS OF THE UNIVERSITY OF COLORADO, A BODY CORPORATE, priority 2012, dated 2022)

Columns and labels:
[1] = system: AR-dependent MMTV-luciferase reporter; assay: Luciferase assay in MDA-kb2 cells; type: cell-based, human; settings: Enza 10, 1, 0.1 μM, DHT, 24 h
Protocol: Luciferase Assays. MDA-kb2 cells were plated at 5×10^3 cells/well in 96-well luminescence plates and incubated overnight. Cells were treated with 10-fold serial dilutions of Enza (10, 1, 0.1 μM) and DHT (10, 1, 0.1, 0.01, 0.001 nM) that were prepared in DMSO. Following 24 h of incubation, the luminescence levels were determined with the luciferase assay system (Promega). Three independent experiments were performed and the luminescence values were determined as relative units (R.U.) and normalized to vehicle. Values were expressed as the mean fold induction±standard error (SE).

[2] = target: T1, ERβ (Homo sapiens, UniProt Q92731); assay: Radioligand binding assay, [3H] Estradiol displacement; settings: 0.5 nM [3H] Estradiol; 0.1 μM to 100 μM
T1 construct: purchased Ricera Biosciences, LLC (contract assay)

[3] = target: T2, ERα (Homo sapiens, UniProt P03372); assay: as above; settings: 0.5 nM [3H] Estradiol; 0.1 μM to 100 μM
T2 construct: purchased Ricera Biosciences, LLC (contract assay)
T2 sequence (P03372 1-595): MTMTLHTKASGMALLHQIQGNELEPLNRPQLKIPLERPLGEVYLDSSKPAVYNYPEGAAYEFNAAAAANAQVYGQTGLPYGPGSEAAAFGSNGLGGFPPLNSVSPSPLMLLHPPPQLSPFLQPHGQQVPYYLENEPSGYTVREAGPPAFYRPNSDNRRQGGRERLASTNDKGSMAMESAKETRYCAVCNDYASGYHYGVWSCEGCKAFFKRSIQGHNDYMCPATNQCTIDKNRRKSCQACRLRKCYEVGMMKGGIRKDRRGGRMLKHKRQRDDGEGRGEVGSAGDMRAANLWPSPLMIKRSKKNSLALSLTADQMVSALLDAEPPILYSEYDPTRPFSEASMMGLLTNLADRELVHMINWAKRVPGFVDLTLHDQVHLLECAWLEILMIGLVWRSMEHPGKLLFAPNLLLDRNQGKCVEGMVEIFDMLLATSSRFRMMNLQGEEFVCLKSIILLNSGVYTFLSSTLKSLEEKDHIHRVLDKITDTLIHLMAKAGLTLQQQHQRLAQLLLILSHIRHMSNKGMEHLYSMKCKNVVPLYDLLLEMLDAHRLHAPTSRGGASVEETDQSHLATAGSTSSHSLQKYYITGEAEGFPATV

[4] = system: PR, SDF-1; assay: qPCR of estrogen responsive genes PR and SDF-1; type: cell-based
Protocol: For FASN, PRLR and GCDFP-15, SYBR green quantitative gene expression analysis was performed using the following primers: FASN [NT] ID NO: 1), FASN […] ID NO: 2); PRLR [NT] ID NO: 3), PRLR […] ID NO: 4); […] ID NO: 5), […] ID NO: 6); 18[…] ID NO: 7), 18[…] ID NO: 8). For PR and SDF-1, taqman real time PCR was performed using validated primer/probe sets from Applied Biosystems (assay IDs: PR Hs01556702_ml, SDF-1 Hs00171022 ml, 18S Hs99999901_sl). Relative gene expression was calculated using the comparative Ct method and values were normalized to 18S.

[5] = system: MCF7-TGL cells; settings: for decrease in whole body luminescence: day 11
Protocol: Tumor studies. […] Briefly, 10^6 MCF7-TGL cells stably expressing a triple fusion of thymidine kinase, GLP and luciferase (SFG-NES-TGL retroviral vector) for IVIS imaging purposes were mixed with Matrigel (BD Biosciences) and injected into the fourth inguinal mammary fat pad of female, ovariectomized athymic nu/nu or non-obese diabetic (NOD)/SCID mice (Taconic). At time of tumor injection, E2 pellets (60-day release, 1.5 mg/pellet, Innovative Research of America) or DHT (8 mg/pellet, packed and sealed in silastic tubing) were implanted subcutaneously (SQ) at the back of the neck. Tumor burden was assessed using in vivo imaging system (IVIS) or caliper measurements. Once the tumors had established, the mice were matched into groups on the basis of total tumor burden as measured by IVIS or caliper. […] The feed was irradiated and stored at 4° C. before use. […] All mice were given free access to MDV3100 mixed with chow or control chow during the entire study period and at an average of 3.5 g/day food intake. Feed was changed in the animal cages twice a week. Water and feed were prepared ad libitum. Two hours prior to sacrifice, mice were injected IP with 50 mg/kg BrDU (Sigma-Aldrich). Mice were euthanized by CO2 asphyxiation followed by cervical dislocation and blood, tumors, colon, uteri and mammary glands were harvested.
Immunohistochemistry. Slides were deparaffinized in a series of xylenes and ethanols and antigens were heat retrieved in either 10 mM citrate buffer pH 6.0 (BrdU, Ki67) or 10 mM Tris/1 mM EDTA buffer at pH 9.0 (AR, ER, caspase 3). Tissue for BrdU was incubated in 2N HCl followed by 0.1M sodium borate following antigen retrieval. […] Envision-HRP (Dakocytomation) was used for antibody detection. TUNEL staining for apoptosis was performed using the ApopTag Plus Peroxidase In Situ Apoptosis Detection Kit (Millipore), as per manufacturer's instructions. […] For BrdU and TUNEL staining in xenograft studies, three separate 200× fields of each xenograft tumor were taken using an Olympus BX40 microscope (Center Valley, Pa.) with a SPOT Insight Mosaic 4.2 camera and software (Diagnostic Instruments, Inc., Sterling Heights, Mich.). A color threshold (RGB for positive staining nuclei, and HSB for total nuclei) was adjusted manually using ImageJ (National Institutes of Health) for each image, and particles created by the thresholds were analyzed for total area. RGB area was divided by HSB area and multiplied by 100 for each image. For analysis of the nuclear androgen receptor, cleaved caspase 3 and Ki67, slides were scanned at 20× on an Aperio Scan ScanScope XT. Mammary tumor tissue was traced separately for each tumor and necrotic areas of the tumor removed using a negative pen tool in Aperio's Scanscope software. A Nuclear Algorithm was utilized to measure the percent positive cells for the Ki-67 and Androgen Receptor stained slides and the data exported. Cleaved Caspase 3 stained slides were analyzed using a modified Positive Pixel Count algorithm.

[6] = system: breast cancer; assay: Tamoxifen study: adjuvant tamoxifen cohort, Kaplan-Meier by AR:ER ratio; type: in vivo, female patients
[7] = E2 pellet, chow 50 mg/kg enzalutamide or tamoxifen pellet

T1 sequence (Q92731 whole entry): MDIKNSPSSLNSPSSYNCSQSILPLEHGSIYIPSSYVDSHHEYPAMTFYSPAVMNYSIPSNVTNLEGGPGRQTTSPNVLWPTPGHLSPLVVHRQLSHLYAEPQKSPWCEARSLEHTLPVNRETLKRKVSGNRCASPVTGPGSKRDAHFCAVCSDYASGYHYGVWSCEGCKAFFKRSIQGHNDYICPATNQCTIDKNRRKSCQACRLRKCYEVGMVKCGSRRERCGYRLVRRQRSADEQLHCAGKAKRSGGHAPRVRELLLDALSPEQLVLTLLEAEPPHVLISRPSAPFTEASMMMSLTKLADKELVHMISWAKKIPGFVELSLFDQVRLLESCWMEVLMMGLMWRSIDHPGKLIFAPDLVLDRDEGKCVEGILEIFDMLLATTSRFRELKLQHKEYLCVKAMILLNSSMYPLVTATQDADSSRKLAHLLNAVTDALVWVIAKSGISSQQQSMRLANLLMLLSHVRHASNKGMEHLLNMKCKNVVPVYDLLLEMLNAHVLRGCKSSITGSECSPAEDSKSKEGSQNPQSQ

SMILES | activation of androgen responsive luciferase reporter [1] | binding to ERβ [2] | binding to ERα [3] | E2-induced upregulation of PR and SDF-1 mRNA [4] | decrease in AR nuclear localization in tumors ([5]; DHT pellet, chow 50 mg/kg) [%] | increase in apoptotic cells (TUNEL staining) ([5]; DHT pellet, chow 50 mg/kg) [%] | decrease in luminescence as compared to the DHT group ([5]; DHT pellet, chow containing 50 mg/kg enzalutamide, day 19, IVIS) [%] | tumor burden ([5]; DHT pellet, enzalutamide by oral gavage) | apoptosis under E2-stimulated growth conditions ([5]; E2 pellet) | decrease in whole body luminescence [5, 7] [%] | mean time to failure ([6]; AR:ER<1.3) | median time to failure ([6]; AR:ER<1.3) [months] | median time to failure ([6]; AR:ER>=1.3) | mean time to failure ([6]; higher AR:ER ratio group (cut point 1.3)) | decrease in cell proliferation compared to the E2 group (BrdU incorporation) [5, 7] [%]
CNC(=O)c1ccc(N2C(=S)N(c3ccc(C#N)c(C(F)(F)F)c3)C(=O)C2(C)C)cc1F [enzalutamide] | inhibited activation of the luciferase construct in a dose dependent manner | did not significantly bind | did not significantly bind | inhibited | 92.5 | 50 | 83.2 | decreased in a dose dependent manner | did not induce apoptosis | 70.3 | – | – | – | – | –
CC/C(=C(\c1ccccc1)c1ccc(OCCN(C)C)cc1)c1ccccc1 [tamoxifen] | – | – | – | – | – | – | – | – | – | 59.9 | 45+/−2.3 months | > 120 | 30+/−2 months | 29+/−4.3 months | 46.4
